How the values were obtained:
[1] = tested on: TH17 cells; experiment: TH17 cellular proliferation (Prestoblue); format: cell-based; conditions: Homo sapiens, 120 h; 3 μM compound, after 5 day TH17 differentiation, relative to DMSO treated TH17 cells; read-out: % change in TH17 cell number
Experimental: (§1) Peripheral blood mononuclear cells (PBMCs) were sourced from freshly prepared leukocyte enriched plasma (buffy coat) from healthy volunteers from which PBMCs were isolated by density gradient centrifugation using Ficoll-Paque™ PLUS (GE Healthcare). Naïve CD4+ T cells were isolated using the Naïve CD4+ T cell Isolation Kit II (Miltenyi Biotec) as per manufacturer's instructions. CD4+ T cells were plated at 5×10^4 cells/well in 96 well plates pre-coated with immobilized human (h)-αCD3 antibody (eBioscience) then differentiated to TH17 cells using h-αCD28, h-αIFNγ, h-αIL4, h-IL6, h-IL23, h-IL1β, h-TGFβ1 (eBioscience) and maintained in a cell culture incubator at 37° C. with 5% CO2 in TexMACS Medium (Miltenyi Biotec) supplemented with 1% Penicillin/Streptomycin (Lonza) over 5 days.
Cellular proliferation was assessed in the presence or absence of 3 μM compound using Prestoblue® Cell Viability Reagent (Life Technologies) as per manufacturer's instructions using absorbance as the output measured by a microplate reader (Perkin Elmer) after 30 minutes of incubation of cells and reagent. A standard curve developed by plotting varying cell numbers versus absorbance was used to assess differences in cellular proliferation between compound treated or untreated cells after the 5 day TH17 differentiation period.

[2] = tested on: IL-17F; experiment: Real-time qRT-PCR in TH17 cells: IL-17F gene expression; format: cell-based, human; set-up: key: A: No change in gene expression observed relative to DMSO treated Th17 cells; B: Decreased gene expression observed relative to DMSO treated Th17 cells; C: Increased gene expression observed relative to DMSO treated Th17 cells
Experimental: as §1
(§2) RNA was isolated from TH17 cells and cDNA was synthesized using the Verso cDNA kit (Thermo Scientific) as per manufacturer's instructions. IL-17A, IL-17F, IL-21, IL-22, G-CSF, IL-23R and FOXP3 gene expression were determined for compound treated and untreated TH17 cell samples using Solaris qPCR Gene expression assays (Thermo Scientific) with an iCycler iQ Real-Time PCR Detection System (Bio-Rad). Individual gene expression was normalized to a panel of six reference genes (ACTB, TBP, HPRT1, PGK1, TFRC and PPIA) (Thermo Scientific) and analyzed by REST 2009 (Qiagen) in accordance to MIQE guidelines (Bustin et al. (2009) Clin. Chem, 55:611-622). The effects of compounds on TH17 cytokine mRNA levels are presented as fold change in gene expression of compound treated TH17 cells relative to DMSO treated cells in the table below.

[3] = TH17 cell viability (Prestoblue); format: cell-based; set-up: concentration or dose not given beside the values; conditions: human; percentage of DMSO treated cells; read-out: % viability of compound treated TH17 cells
Experimental: as §1
Cells were assayed for viability in the presence or absence of compound using Prestoblue® Cell Viability Reagent (Life Technologies) as per manufacturer's instructions after 30 minutes incubation of TH17 cells with reagent. Absorbance was measured at 570 nm and 600 nm using a microplate reader (Perkin Elmer) and data were analyzed as per manufacturer's instructions. Cell viability was expressed as a percentage of DMSO treated cells.

[4] = tested on: IL-17F; experiment: TH17 cytokine inhibition as measured by ELISA: IL-17F; format: cell-based; conditions: 120 h; human TH17 cells, 5 days differentiation, ELISA of supernatant
Experimental: as §1
(§3) Human CD4+ T cells were differentiated to TH17 cells as described in the presence or absence of various concentrations of compounds in a final concentration of 0.1% DMSO in TexMACS medium. Supernatants were collected and stored at −20° C. until they were to be assayed for IL-17A, IL-17F, IL-17AF, IL-21 and/or IL-22 levels as determined by Ready-Set-Go ELISA kits (eBioscience) as per manufacturer's instructions. Endpoint absorbance was read at 450 nm and 570 nm according to manufacturer's instructions (eBioscience) using a microplate reader (Perkin Elmer). The percentage of cytokine inhibition was calculated with reference to DMSO treated cells and the IC50s were determined by GraphPad Prism software and presented in the table below.

[5] = tested on: IL-22; experiment: TH17 cytokine inhibition as measured by ELISA: IL-22; format: cell-based; conditions: 120 h; human TH17 cells, 5 days differentiation, ELISA of supernatant
Experimental: as §1, §3

[6] = tested on: IL-17A; experiment: Real-time qRT-PCR in TH17 cells: IL-17A gene expression; format: cell-based, human; set-up: key: A: No change in gene expression observed relative to DMSO treated Th17 cells; B: Decreased gene expression observed relative to DMSO treated Th17 cells; C: Increased gene expression observed relative to DMSO treated Th17 cells
Experimental: as §1, §2

[7] = tested on: IL-17A; experiment: TH17 cytokine inhibition as measured by ELISA: IL-17A; format: cell-based; conditions: 120 h; human TH17 cells, 5 days differentiation, ELISA of supernatant
Experimental: as §1, §3

[8] = target: T1, RORγ LBD (Homo sapiens (Human), UniProt P51449); experiment: TR-FRET co-repressor NCoR1-D2 interaction with RORγ LBD; format: biochemical
Description: (§4) The Time-Resolved Fluorescence Resonance Energy Transfer (TR-FRET) assay kit (Life Technologies) was used to measure compound efficacy to disrupt or enhance ligand-mediated interaction of the co-activator and co-repressor peptides with the purified GST-tagged (i) RORγ LBD or (ii) […]. The RORγ LBD and RORα LBD each have a basal level of interaction with the co-activator D22 or co-repressor NCoR1-D2 in the absence of ligand, thus it is possible to identify compounds that inhibit or induce RORγ and/or RORα co-activator/co-repressor interactions, thus determining RORα, RORγ, or RORα/RORγ compound selectivity. The assay was performed as per manufacturer's instructions and TR-FRET was assessed 2 and 20 hours post-assay initiation. Compounds were identified to (i) have no impact on either co-activator displacement or […] from the assessed LBD (ii) promote co-activator displacement from the assessed LBD (iii) promote co-repressor recruitment to the assessed LBD or (iv) concurrently promote co-activator displacement from the assessed LBD and co-repressor recruitment to the assessed LBD.

[9] = tested on: IL-22; experiment: Real-time qRT-PCR in TH17 cells: IL-22 gene expression; format: cell-based, human; set-up: key: A: No change in gene expression observed relative to DMSO treated Th17 cells; B: Decreased gene expression observed relative to DMSO treated Th17 cells; C: Increased gene expression observed relative to DMSO treated Th17 cells
Experimental: as §1, §2

[10] = tested on: FOXP3; experiment: Real-time qRT-PCR in TH17 cells: FOXP3 gene expression; format: cell-based, human; set-up: key: A: No change in gene expression observed relative to DMSO treated Th17 cells; B: Decreased gene expression observed relative to DMSO treated Th17 cells; C: Increased gene expression observed relative to DMSO treated Th17 cells
Experimental: as §1, §2

[11] = target: T2, RORα LBD (Homo sapiens (Human), UniProt P35398); experiment: TR-FRET co-repressor NCoR1-D2 interaction with RORα LBD; format: biochemical
Description: as §4

[12] = target: T2, RORα LBD; experiment: TR-FRET co-activator D22 interaction with RORα LBD; format: biochemical
Description: as §4

[13] = tested on: IL-23R; experiment: Real-time qRT-PCR in TH17 cells: IL-23R gene expression; format: cell-based, human; set-up: key: A: No change in gene expression observed relative to DMSO treated Th17 cells; B: Decreased gene expression observed relative to DMSO treated Th17 cells; C: Increased gene expression observed relative to DMSO treated Th17 cells
Experimental: as §1, §2

[14] = target: T1, RORγ LBD; experiment: TR-FRET co-activator D22 interaction with RORγ LBD; format: biochemical
Description: as §4

[15] = tested on: IL-21; experiment: Real-time qRT-PCR in TH17 cells: IL-21 gene expression; format: cell-based, human; set-up: key: A: No change in gene expression observed relative to DMSO treated Th17 cells; B: Decreased gene expression observed relative to DMSO treated Th17 cells; C: Increased gene expression observed relative to DMSO treated Th17 cells
Experimental: as §1, §2

[16] = target: T1, RORγ LBD; experiment: RORγ LBD binding (Human RORγ Assay System, INDIGO Biosciences); conditions: 0.5% DMSO
Experimental: Compound binding to the human RORγ LBD was assessed using the Human RORγ Assay System (INDIGO Biosciences Inc.) as per manufacturer's instructions.

[17] = tested on: IL-17AF; experiment: TH17 cytokine inhibition as measured by ELISA: IL-17AF; format: cell-based; conditions: 120 h; human TH17 cells, 5 days differentiation, ELISA of supernatant
Experimental: as §1, §3

[18] = 2 hr, read-out: RORγ EC50 NCoR1-D2 co-repressor recruitment 2 hr
[19] = 20 hr, read-out: RORγ EC50 NCoR1-D2 co-repressor recruitment 20 hr
[20] = 2 hr, read-out: RORα EC50 NCoR1-D2 co-repressor recruitment 2 hr
[21] = 20 hr, read-out: RORα EC50 NCoR1-D2 co-repressor recruitment 20 hr
[22] = 2 hr, read-out: RORα EC50 D22 co-activator displacement 2 hr
[23] = 20 hr, read-out: RORα EC50 D22 co-activator displacement 20 hr
[24] = 2 hr, read-out: RORγ EC50 D22 co-activator displacement 2 hr
[25] = 20 hr, read-out: RORγ EC50 D22 co-activator displacement 20 hr

T2 sequence (P35398 272-510): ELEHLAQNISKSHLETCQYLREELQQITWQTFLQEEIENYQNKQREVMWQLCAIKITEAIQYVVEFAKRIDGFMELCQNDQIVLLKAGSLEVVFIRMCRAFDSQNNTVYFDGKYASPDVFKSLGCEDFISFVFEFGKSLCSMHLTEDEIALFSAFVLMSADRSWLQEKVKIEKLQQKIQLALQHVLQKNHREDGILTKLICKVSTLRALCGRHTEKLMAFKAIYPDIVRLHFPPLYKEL
T1 sequence (P51449 269-508): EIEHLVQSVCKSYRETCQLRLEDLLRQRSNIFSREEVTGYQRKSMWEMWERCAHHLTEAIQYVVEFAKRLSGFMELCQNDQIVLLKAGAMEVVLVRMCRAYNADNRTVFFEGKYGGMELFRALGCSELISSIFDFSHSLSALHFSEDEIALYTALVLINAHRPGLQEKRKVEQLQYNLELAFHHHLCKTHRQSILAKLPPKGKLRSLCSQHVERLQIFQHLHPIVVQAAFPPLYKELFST

SMILES: CS(=O)(=O)Nc1ccc2c(c1)CCC(=O)N2Cc1ccc(C(O)(C(F)(F)F)C(F)(F)F)cc1 [Example 6, N-(1-(4-(1,1,1,3,3,3-hexafluoro-2-hydroxypropan-2-yl)benzyl)-2-oxo-1,2,3,4-tetrahydroquinolin-6-yl)methanesulfonamide]
- inhibition at 3 µM [1]: ≤ 50%
- Fold change in mRNA level of compound treated TH17 cells relative to DMSO treated cells IL-17F [2]: B
- viability [3]: > 80%
- IC50 [4]: < 10 µM
- IC50 [5]: < 10 µM
- Fold change in mRNA level of compound treated TH17 cells relative to DMSO treated cells IL-17A [6]: A
- IC50 [7]: < 10 µM
- EC50 [8, 18]: < 30 µM
- EC50 [8, 19]: > 30 µM
- Fold change in mRNA level of compound treated TH17 cells relative to DMSO treated cells IL-22 [9]: A
- Fold change in mRNA level of compound treated TH17 cells relative to DMSO treated cells FOXP3 [10]: A
- EC50 [11, 20]: > 30 µM
- EC50 [11, 21]: > 30 µM
- EC50 [12, 22]: < 30 µM
- EC50 [12, 23]: < 30 µM
- Fold change in mRNA level of compound treated TH17 cells relative to DMSO treated cells IL-23R [13]: A
- EC50 [14, 24]: > 30 µM
- EC50 [14, 25]: > 30 µM
- Fold change in mRNA level of compound treated TH17 cells relative to DMSO treated cells IL-21 [15]: A

SMILES: CC(=O)Nc1ccc2c(c1)CCC(=O)N2Cc1ccc(C(O)(C(F)(F)F)C(F)(F)F)cc1 [Example 3, N-(1-(4-(1,1,1,3,3,3-hexafluoro-2-hydroxypropan-2-yl)benzyl)-2-oxo-1,2,3,4-tetrahydroquinolin-6-yl)acetamide]
- inhibition at 3 µM [1]: ≤ 50%
- IC50 [16]: > 10 µM
- IC50 [17]: > 10 µM
- viability [3]: > 80%
- IC50 [4]: < 10 µM
- IC50 [7]: < 10 µM
- EC50 [8, 18]: > 30 µM
- EC50 [8, 19]: < 30 µM
- EC50 [11, 20]: > 30 µM
- EC50 [11, 21]: > 30 µM
- EC50 [12, 22]: > 30 µM
- EC50 [12, 23]: > 30 µM
- EC50 [14, 24]: > 30 µM
- EC50 [14, 25]: < 30 µM
